# From US20110245197A1, “HYPERSULFATED GLUCOPYRANOSIDES” (OPKO Health, Inc., priority 2010, published 2011)
# Test system: allergic sheep (dual bronchoconstrictor responders to Ascaris suum antigen)
# Experiment: Antigen-induced change in specific pulmonary airflow resistance (SRL): early (EAR) and late (LAR) airway response in allergic sheep
# Type: in vivo
# Description: Pulmonary airflow resistance was measured by taking allergic sheep previously verified as dual bronchoconstrictor responders to Ascaris suum antigen. The sheep were intubated with a cuffed nasotracheal tube and pulmonary airflow resistance (RL) was measured by the esophageal balloon catheter technique, while thoracic gas volume was measured by body plethysmography. Data were expressed as specific RL (SRL, defined as RL times thoracic gas volume (Vtg)). Airway responsiveness was determined by first securing cumulative dose response curves to inhaled carbachol (a constrictor agonist) by measuring SRL before and after inhalation of buffered saline and after each administration of 10 breaths of increasing concentrations of carbachol (0.25, 0.5, 1.0, 2.0 and 4.0% wt/vol solution). Airway responsiveness was measured by determining the cumulative provocation dose (PD400) of carbachol (in breath units) that increased SRL to 400% above baseline. One breath unit was defined as one breath of 1% carbachol solution.
# To illustrate the effectiveness of the formulations according to the invention to treat and alleviate allergen related diseases and conditions, including but not limited to the specific diseases and conditions recited herein, sheep were assessed in multiple experiments which compared various formulations containing no added polymer or additive to animals which were provided formulations comprising a compound of formula I (as compound 1a) along with an optional additive selected from a polymer. To measure pulmonary airflow resistance, the sheep were intubated with a cuffed nasotracheal tube and pulmonary airflow resistance (RL) was measured by the esophageal balloon catheter technique, while thoracic gas volume was measured by body plethysmography. […] Data were expressed as specific RL (SRL defined as RL× thoracic gas volume (Vg).
# For airway studies, each animal's baseline airway responsiveness (PD400)) was determined and then, on different experimental days, the test sheep underwent airway challenge with Ascaris suum antigen. […]
# [1] = aerosol 0.5 mgs/kg (approximately 20 mgs), thirty minutes before antigen challenge, n=5 (FIG. 11)
substance,measurement,setting,value
aluminum salt of octasulfated sucrose,LAR % protection,[1],0%
same,effect on EAR,[1],no significant effect
same,effectiveness (general statement),"general statement in the description, supported by FIG. 11",not effective
